Data: the SangsterLogP compilation

Details: pH 7.4

Structure (SMILES)	logD
NS(=O)(=O)c1cc2cc(C(=O)NCC(O)CO)sc2s1 (configuration not stated)	0.35
CS(=O)CCNC(=O)c1cc2cc(S(N)(=O)=O)sc2s1 (configuration not stated)	-0.15
